Data published in patent publication US20260250290A1 (BRISTOL-MYERS SQUIBB COMPANY, priority 2023, published 2026).

Target: T1, full length SGK1 (Homo sapiens, UniProt O00141)
T1 construct: 125 μM full length SGK1 (Life Technologies Part #PR7358A); purchased Life Technologies PR7358A
T1 sequence (O00141 1-431): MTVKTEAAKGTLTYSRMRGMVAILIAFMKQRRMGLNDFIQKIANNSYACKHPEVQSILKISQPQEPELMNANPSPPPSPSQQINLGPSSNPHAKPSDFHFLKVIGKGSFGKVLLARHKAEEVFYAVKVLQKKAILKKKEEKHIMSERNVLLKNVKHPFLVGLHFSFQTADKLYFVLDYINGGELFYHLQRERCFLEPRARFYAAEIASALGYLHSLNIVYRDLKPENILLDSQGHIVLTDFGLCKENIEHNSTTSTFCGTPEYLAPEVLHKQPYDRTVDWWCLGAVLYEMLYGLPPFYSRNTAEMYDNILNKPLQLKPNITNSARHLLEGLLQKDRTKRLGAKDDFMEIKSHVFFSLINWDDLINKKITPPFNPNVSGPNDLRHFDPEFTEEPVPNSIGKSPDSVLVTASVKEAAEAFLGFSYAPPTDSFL
Assay: SGK1 inhibition Assay A (Caliper LabChip electrophoretic separation of fluorescent peptide substrate and phosphorylated product)
Format: biochemical
Settings: Assay A; 20 μM ATP, 40 min incubation; read-out: SGK1 IC50

Work on Nc1ncnn2c(-c3ccnc(C(F)F)c3)cc(N3CCC[C@@H](NC(=O)c4ccc(C(F)F)s4)C3)c12 [Example 482, (R)-N-(1-(4-amino-7-(2-(difluoromethyl)pyridin-4-yl)pyrrolo[2,1-f][1,2,4]triazin-5-yl)piperidin-3-yl)-5-(difluoromethyl)thiophene-2-carboxamide] yielded an IC50 of 6 nM.

Target: T2, SGK1 (Homo sapiens, UniProt O00141)
T2 sequence (O00141 1-431): T1 sequence (O00141 1-431)
Assay: SGK1 inhibition Assay B (Echo mass spectrometry of phosphorylated peptide product)
Format: biochemical
Settings: 60 min at room temperature
Protocol: 20 μl of 2 nM SGK1 were added in 20 mM Hepes+10 mM MgCl2+0015% Brij-35+4 mM DTT+0.05 mg/ml BSA and the reaction incubated for 60 min at room temperature. The enzymatic reaction was quenched by addition 10 μl of 1% Formic Acid+150 nM Internal Standard: FITC-(Ahx)KKRNRR(pS)VA^—OH (final concentration). The plates are spun down at 3700 RPM for 10 minutes to remove all precipitate. Samples were loaded on to the Sciex Echo Mass Spec attached to a Sciex 6500 equipped with ESI and was used to analyze the phosphorylated peptide product. MRM transition of product and internal standard were monitored at m/z 755 to 937.5 and m/z 757.7 to 941.3 respectively. Peak area of analyte was normalized with internal standard.
Dose response curves were generated to determine the concentration required for inhibiting 50% of the enzyme activity. Compounds were dissolved at 10 mM in dimethylsulfoxide (DMSO) and evaluated at eleven concentrations.

Going from Nc1ncnn2c(-c3ccnc(C(F)F)c3)cc(N3CCC[C@@H](NC(=O)c4ccc(C(F)F)s4)C3)c12 [Example 482, (R)-N-(1-(4-amino-7-(2-(difluoromethyl)pyridin-4-yl)pyrrolo[2,1-f][1,2,4]triazin-5-yl)piperidin-3-yl)-5-(difluoromethyl)thiophene-2-carboxamide] to Cc1nc(OC2CCC(N3CCC3)CC2)c(C(=O)N[C@@H]2CCCN(c3cc(-c4ccc(C(N)=O)c(F)n4)n4ncnc(N)c34)C2)s1 (stereo partly drawn) [Example 1041, (R)—N-(1-(4-amino-7-(5-carbamoyl-6-fluoropyridin-2-yl)pyrrolo[2,1-f][1,2,4]triazin-5-yl)piperidin-3-yl)-4-((4-(azetidin-1-yl)cyclohexyl)oxy)-2-methylthiazole-5-carboxamide], the IC50 falls from 3 nM to 1.7 nM (1.8-fold). The second is the more potent here.

COc1nc(-c2cc(N3CCC[C@@H](NC(=O)c4sc(C)nc4OC4CCC(N5CCC[C@@H]5C)CC4)C3)c3c(N)ncnn23)ccc1C(N)=O (stereo partly drawn) [Example 1043, N—((R)-1-(4-amino-7-(5-carbamoyl-6-methoxypyridin-2-yl)pyrrolo[2,1-f] [1,2,4]triazin-5-yl)piperidin-3-yl)-2-methyl-4-((4-((S)-2-methylpyrrolidin-1-yl)cyclohexyl)oxy) thiazole-5-carboxamide] and COc1nc(-c2cc(N3CCC[C@@H](NC(=O)c4sc(C)nc4OC4CCC(N5CCC[C@H]5C)CC4)C3)c3c(N)ncnn23)ccc1C(N)=O (stereo partly drawn) [Example 1044, N—((R)-1-(4-amino-7-(5-carbamoyl-6-methoxypyridin-2-yl)pyrrolo[2,1-f][1,2,4]triazin-5-yl)piperidin-3-yl)-2-methyl-4-((4-((R)-2-methylpyrrolidin-1-yl)cyclohexyl)oxy)thiazole-5-carboxamide] are within 1.5-fold of each other in IC50: 2.1 nM for the first, 2.8 nM for the second.

Compared with COc1nc(-c2cc(N3CCC[C@@H](NC(=O)c4sc(C)nc4OC4CCC(N5CCC5)CC4)C3)c3c(N)ncnn23)ccc1C(N)=O (stereo partly drawn) [Example 1045, (R)—N-(1-(4-amino-7-(5-carbamoyl-6-methoxypyridin-2-yl)pyrrolo[2,1-f][1,2,4]triazin-5-yl)piperidin-3-yl)-4-((4-(azetidin-1-yl)cyclohexyl)oxy)-2-methylthiazole-5-carboxamide], Cc1cc(-c2cc(N3CCC[C@@H](NC(=O)c4sc(C)nc4O[C@H]4CC[C@@H](N(C)C)CC4)C3)c3c(N)ncnn23)cnn1 [Example 1046] is 32-fold higher in IC50: 0.5 nM for the first, 16 nM for the second. The first is the more potent here.

Compared with Cc1cc(-c2cc(N3CCC[C@@H](NC(=O)c4sc(C)nc4OC4CCC(N5CCC5)CC4)C3)c3c(N)ncnn23)cnn1 (stereo partly drawn) [Example 1047, N—((R)-1-(4-amino-7-(6-methylpyridazin-4-yl)pyrrolo[2,1-f][1,2,4]triazin-5-yl)piperidin-3-yl)-4-((4-(azetidin-1-yl)cyclohexyl)oxy)-2-methylthiazole-5-carboxamide], Cc1nc(OC2CCC(N3CC(O)C3)CC2)c(C(=O)N[C@@H]2CCCN(c3cc(C#N)n4ncnc(N)c34)C2)s1 (stereo partly drawn) [Example 1048, (R)—N-(1-(4-amino-7-cyanopyrrolo[2,1-f][1,2,4]triazin-5-yl)piperidin-3-yl)-4-((4-(3-hydroxyazetidin-1-yl)cyclohexyl)oxy)-2-methylthiazole-5-carboxamide] is 3.2-fold lower in IC50: 9.9 nM for the first, 3.1 nM for the second. The second is the more potent here.

Compared with Cc1nc(OC2CCC(N3CCC3)CC2)c(C(=O)N[C@@H]2CCCN(c3cc(C#N)n4ncnc(N)c34)C2)s1 (stereo partly drawn) [Example 1049, (R)—N-(1-(4-amino-7-cyanopyrrolo[2,1-f][1,2,4]triazin-5-yl)piperidin-3-yl)-4-((4-(azetidin-1-yl)cyclohexyl)oxy)-2-methylthiazole-5-carboxamide], Cc1nc(OC2CCC(N3CCC3)CC2)c(C(=O)N[C@@H]2CCCN(c3cc(-c4csc(C(N)=O)n4)n4ncnc(N)c34)C2)s1 (stereo partly drawn) [Example 1050, (R)-4-(4-amino-5-(3-(4-((4-(azetidin-1-yl)cyclohexyl)oxy)-2-methylthiazole-5-carboxamido)piperidin-1-yl)pyrrolo[2,1-f][1,2,4]triazin-7-yl)thiazole-2-carboxamide] is 3.2-fold lower in IC50: 1.9 nM for the first, 0.6 nM for the second.

Cc1nc(OC2CCC(N3CCC3)CC2)c(C(=O)N[C@@H]2CCCN(c3cc(-c4nc(C(N)=O)cs4)n4ncnc(N)c34)C2)s1 (stereo partly drawn) [Example 1052, (R)-2-(4-amino-5-(3-(4-((4-(azetidin-1-yl)cyclohexyl)oxy)-2-methylthiazole-5-carboxamido)piperidin-1-yl)pyrrolo[2,1-f][1,2,4]triazin-7-yl)thiazole-4-carboxamide] and CC[C@H](CO)NC1CCC(Oc2nc(C)sc2C(=O)N[C@@H]2CCCN(c3cc(-c4csc(C(=O)NC)n4)n4ncnc(N)c34)C2)CC1 (stereo partly drawn) [Example 1053, 4-(4-amino-5-((R)-3-(4-((4-(((R)-1-hydroxybutan-2-yl)amino)cyclohexyl)oxy)-2-methylthiazole-5-carboxamido)piperidin-1-yl)pyrrolo[2,1-f][1,2,4]triazin-7-yl)-N-methylthiazole-2-carboxamide] are within 1.5-fold of each other in IC50: 0.9 nM for the first, 0.8 nM for the second.

CCC(C)(C)NC1CCC(Oc2nc(C)sc2C(=O)N[C@@H]2CCCN(c3cc(-c4ccc(C(N)=O)c(F)n4)n4ncnc(N)c34)C2)CC1 (stereo partly drawn) [Example 1055, (R)—N-(1-(4-amino-7-(5-carbamoyl-6-fluoropyridin-2-yl)pyrrolo[2,1-f][1,2,4]triazin-5-yl)piperidin-3-yl)-2-methyl-4-((4-(tert-pentylamino)cyclohexyl)oxy)thiazole-5-carboxamide] and Cc1nc(OC2CCC(NC(C)(C)C)CC2)c(C(=O)N[C@@H]2CCCN(c3cc(-c4ccc(C(N)=O)c(F)n4)n4ncnc(N)c34)C2)s1 (stereo partly drawn) [Example 1056, (R)—N-(1-(4-amino-7-(5-carbamoyl-6-fluoropyridin-2-yl)pyrrolo[2,1-f][1,2,4]triazin-5-yl)piperidin-3-yl)-4-((4-(tert-butylamino)cyclohexyl)oxy)-2-methylthiazole-5-carboxamide] are within 1.5-fold of each other in IC50: 0.5 nM for the first, 0.7 nM for the second.

First: COc1nc(-c2cc(N3CCC[C@@H](NC(=O)c4sc(C)nc4O[C@H]4CC[C@@H](N(C)C)CC4)C3)c3c(N)ncnn23)ccc1C(N)=O [Example 1057, N—((R)-1-(4-amino-7-(5-carbamoyl-6-methoxypyridin-2-yl)pyrrolo[2,1-f][1,2,4]triazin-5-yl)piperidin-3-yl)-4-(((1S,4S)-4 (dimethylamino)cyclohexyl)oxy)-2-methylthiazole5-carboxamide]
Second: CNC(=O)c1ccc(-c2cc(N3CCC[C@@H](NC(=O)c4sc(C)nc4O[C@H]4CC[C@@H](N(C)C)CC4)C3)c3c(N)ncnn23)nc1OC [Example 1058, N—((R)-1-(4-amino-7-(6-methoxy-5-(methylcarbamoyl)pyridin-2-yl)pyrrolo[2,1-f][1,2,4]triazin-5-yl)piperidin-3-yl)-4-(((1S,4S)-4-(dimethylamino)cyclohexyl)oxy)-2-methylthiazole-5-carboxamide]
The IC50 of the first is 1.5-fold higher: 1.7 nM for the first, 1.1 nM for the second.

Going from “(R)-N-(1-(4-amino-7-(4-(5-methyl-1H-tetrazol-1-yl)phenyl)pyrrolo[2,1-f][1,2,4]triazin-5-yl)piperidin-3-yl)-2-(4-methylpiperazin-1-yl)pyrimidine-4-carboxamide [Example 857]” to “N—((R)-1-(4-amino-7-(2-(tert-butyl)-1,1-dioxido-2,3-dihydrobenzo[d]isothiazol-5-yl)pyrrolo[2,1-f][1,2,4]triazin-5-yl)piperidin-3-yl)-5-chloro-3-(((1R,3s,5S)-8-methyl-8-azabicyclo [3.2.1]octan-3-yl)oxy)thiophene-2-carboxamide [Example 967]”, the IC50 falls from 15 nM to 0.9 nM (17-fold). The second is the more potent here.

“N—((R)-1-(4-amino-7-(5-fluoro-1-(2-methoxyethyl)-6-oxo-1,6-dihydropyridin-3-yl)pyrrolo[2,1-f][1,2,4]triazin-5-yl)piperidin-3-yl)-5-chloro-3-(((1R,3s,5S)-8-methyl-8-azabicyclo[3.2.1]octan-3-yl)oxy)thiophene-2-carboxamide [Example 974]” was tested, and the IC50 was 1 nM.
